Results as given in PMC6431625 (Frontiers in Endocrinology, 2019).
Values belong to the molecule of their own block, whether it stands above or below them.

Tests used:
FP = tested on: FP; design: method as in PMID 10454504; settings: cited from earlier work
FP-Venus = molecular target: T1, FP-Venus (Homo sapiens, UniProt P43088); assay type: cell-based; settings: ligand 1 μM
T1 construct: SP (signal peptide) (N); expressed in transfected cells; host or cells: HEK 293

AT1R-RlucII = molecular target: T2, AT1R-RlucII (Homo sapiens, UniProt P30556+P43088); test: Enhanced bystander BRET trafficking of AT1R-RlucII co-expressed with wildtype FP (Lyn-rGFP, rGFP-FYVE); assay type: cell-based; settings: ligand 1 μM; co-expressed WT FP; HEK293
T2 construct: SP (signal peptide) (N); expressed in transfected cells; host or cells: HEK293
T2 sequence (P43088 whole entry, one chain of several): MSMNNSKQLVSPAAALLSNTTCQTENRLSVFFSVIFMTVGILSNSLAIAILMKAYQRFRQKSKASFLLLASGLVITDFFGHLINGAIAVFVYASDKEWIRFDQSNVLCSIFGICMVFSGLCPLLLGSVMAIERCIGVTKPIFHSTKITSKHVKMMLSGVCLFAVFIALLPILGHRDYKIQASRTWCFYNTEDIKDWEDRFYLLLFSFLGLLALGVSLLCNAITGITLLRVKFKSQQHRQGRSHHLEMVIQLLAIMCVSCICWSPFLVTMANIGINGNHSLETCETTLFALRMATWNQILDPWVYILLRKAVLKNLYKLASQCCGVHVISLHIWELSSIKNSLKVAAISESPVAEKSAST

AT1R[Δ325]-Venus = molecular target: T3, AT1R[Δ325]-Venus (Homo sapiens, UniProt P30556+P43088); assay type: cell-based; settings: ligand 1 μM
T3 construct: SP (signal peptide) (N); expressed in transfected cells; host or cells: HEK 293
T3 sequence (P43088 whole entry, stated change not applied, one chain of several): as the sequence (P43088 whole entry, one chain of several) above

FP-RlucII = molecular target: T4, FP-RlucII (Homo sapiens, UniProt P43088); test: Enhanced bystander BRET trafficking of FP-RlucII co-expressed with wildtype AT1R (Lyn-rGFP, rGFP-FYVE); assay type: cell-based; settings: co-expressed WT-AT1R; HEK293; PGF2α 1 μM; Ang II data not shown
T4 construct: SP (signal peptide) (N); expressed in transfected cells; host or cells: HEK293
T4 sequence (P43088 whole entry, one chain of several): as above

AT1R-WT/FP-Venus dimer = molecular target: T5, AT1R-WT/FP-Venus dimer (Homo sapiens, UniProt P30556+P43088); assay type: cell-based; settings: ligand 1 μM
T5 construct: SP (signal peptide) (N); expressed in transfected cells; host or cells: HEK 293
T5 sequence (P43088 whole entry, one chain of several): as above

AT1R-Venus = molecular target: T6, AT1R-Venus (Homo sapiens, UniProt P30556); assay type: cell-based; settings: ligand 1 μM
T6 construct: SP (signal peptide) (N); expressed in transfected cells; host or cells: HEK 293
T6 sequence (P30556 1-359): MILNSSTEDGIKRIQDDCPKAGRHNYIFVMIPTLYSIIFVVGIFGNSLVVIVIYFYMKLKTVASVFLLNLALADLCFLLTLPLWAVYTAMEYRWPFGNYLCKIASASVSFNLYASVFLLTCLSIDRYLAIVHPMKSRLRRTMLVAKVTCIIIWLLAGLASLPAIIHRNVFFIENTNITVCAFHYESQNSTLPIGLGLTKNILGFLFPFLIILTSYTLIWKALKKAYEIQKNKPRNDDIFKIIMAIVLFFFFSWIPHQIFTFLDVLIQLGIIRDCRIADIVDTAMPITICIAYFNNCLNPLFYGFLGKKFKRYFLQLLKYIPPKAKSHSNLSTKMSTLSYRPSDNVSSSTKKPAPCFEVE

OTR-Venus = assay type: cell-based, human; settings: ligand 1 μM
[1] = molecular target: T7, SP-FLAG-hAT1R-KPVAT-Venus (human, UniProt P30556 1-359); test: FRET or BRET; living HEK 293 parental cells, 37°C, Kreb's buffer pH 7.4; β-arrestin-RlucII donor, receptor-Venus acceptor co-expressed with the untagged partner receptor (AT1R-Venus, AT1R[Δ325]-Venus or OTR-Venus with FP-WT; FP-Venus with AT1R-WT); ΔBRET after PGF2α (1 μM); also other FP ligands, AT1R antagonists and endocytosis inhibitors; settings: partners not purified
T7 construct: human angiotensin II type 1 receptor, wild type; amplified from pcDNA3/SP-FLAG-hAT1R-WT; A signal peptide (SP); BRET acceptor; also called AT1R-Venus; angiotensin II type 1 receptor; not shown: Venus (after the linker KPVAT), C-terminal, kept
T7 sequence (looked up): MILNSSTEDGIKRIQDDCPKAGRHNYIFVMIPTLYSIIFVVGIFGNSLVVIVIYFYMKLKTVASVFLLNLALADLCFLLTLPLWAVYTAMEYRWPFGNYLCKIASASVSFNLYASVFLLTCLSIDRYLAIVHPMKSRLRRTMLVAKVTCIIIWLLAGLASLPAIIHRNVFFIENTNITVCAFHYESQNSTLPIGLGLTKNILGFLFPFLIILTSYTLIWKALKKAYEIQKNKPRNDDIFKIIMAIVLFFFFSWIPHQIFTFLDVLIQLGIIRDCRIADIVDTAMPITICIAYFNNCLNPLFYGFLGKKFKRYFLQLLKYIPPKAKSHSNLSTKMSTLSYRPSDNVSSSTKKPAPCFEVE

[2] = molecular target: T7, SP-FLAG-hAT1R-KPVAT-Venus; test: FRET or BRET; living HEK 293 cells, 37°C, Kreb's buffer pH 7.4, coelenterazine h; β-arrestin-RlucII donor, receptor-Venus acceptor expressed alone (no partner receptor); ligand-induced ΔBRET after Ang II (1 μM), followed 90 min; settings: partners not purified

T1 sequence (P43088 whole entry): as the sequence (P43088 whole entry, one chain of several) above

Molecule: O=C(O)CCC/C=C\C[C@@H]1[C@@H](/C=C/[C@H](O)C2Cc3ccccc3C2)[C@@H](F)C[C@@H]1O [AL-8810]
Agonist properties at FP (FP): partial agonist properties

Ligand-induced recruitment of β-arrestin 1/2-RlucII to FP-Venus alone (FP-Venus): did not induce recruitment | Ligand-induced recruitment of β-arrestin 1/2-RlucII to AT1R[Δ325]-Venus in the context of the dimer (AT1R[Δ325]-Venus): No responses were detected | Ligand-induced recruitment of β-arrestin 1/2-RlucII to the AT1R-WT/FP-Venus dimer (AT1R-WT/FP-Venus dimer): did not induce recruitment | Ligand-induced recruitment of β-arrestin 1/2-RlucII to AT1R-Venus alone (AT1R-Venus): no responses were detected
Molecule: CCCCC[C@H](O)/C=C/[C@@H]1[C@@H](C/C=C\CCCC(=O)O)[C@@H](O)C[C@H]1O [PGF2α, prostaglandin F2α]
Trafficking of AT1R-RlucII (membrane Lyn-rGFP and endosome rGFP-FYVE bystander BRET) (AT1R-RlucII): time-dependent loss of the membrane signal and an increase in the endosomal population | Trafficking of FP-RlucII (membrane Lyn-rGFP and endosome rGFP-FYVE bystander BRET) (FP-RlucII): loss of membrane-localized receptor and a transient increase in an early endosomal population | Ligand-induced recruitment of β-arrestin 1/2-RlucII to OTR-Venus in the context of the dimer (OTR-Venus): No responses were detected

t1/2 of ligand-induced recruitment (BRET) [1]: 20 min | t1/2 of ligand-induced recruitment (BRET) [2]: < 2 min
B1: β-arrestin 1-RlucII (natural protein, UniProt P49407 1-418, looked up)
chain: MGDKGTRVFKKASPNGKLTVYLGKRDFVDHIDLVDPVDGVVLVDPEYLKERRVYVTLTCAFRYGREDLDVLGLTFRKDLFVANVQSFPPAPEDKKPLTRLQERLIKKLGEHAYPFTFEIPPNLPCSVTLQPGPEDTGKACGVDYEVKAFCAENLEEKIHKRNSVRLVIRKVQYAPERPGPQPTAETTRQFLMSDKPLHLEASLDKEIYYHGEPISVNVHVTNNTNKTVKKIKISVRQYADICLFNTAQYKCPVAMEEADDTVAPSSTFCKVYTLTPFLANNREKRGLALDGKLKHEDTNLASSTLLREGANREILGIIVSYKVKVKLVVSRGGLLGDLASSDVAVELPFTLMHPKPKEEPPHREVPENETPVDTNLIELDTNDDDIVFEDFARQRLKGMKDDKEEEEDGTGSPQLNNR
notes: β-arrestin 1; BRET donor; also called βarr1-RlucII
